Experimental findings from patent US8637558B2 (Industry-Academic Cooperation Foundation, Chosun University, priority 2008, dated 2014) are described below.

The structures appear in SMILES notation.

Sequence of 15-PGDH (P15428 whole entry): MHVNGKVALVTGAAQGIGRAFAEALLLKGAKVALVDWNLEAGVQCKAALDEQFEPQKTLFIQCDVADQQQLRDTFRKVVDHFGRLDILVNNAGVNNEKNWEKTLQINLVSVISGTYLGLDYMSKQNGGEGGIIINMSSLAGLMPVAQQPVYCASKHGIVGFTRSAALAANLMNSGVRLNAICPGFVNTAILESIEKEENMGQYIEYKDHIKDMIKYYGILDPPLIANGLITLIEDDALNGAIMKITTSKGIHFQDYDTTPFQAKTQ

This experiment addresses 15-PGDH (Homo sapiens (Human), UniProt P15428). As to the kind of experiment: Assay for the activities of 15-PGDH inhibitors (formation of NADH at 340 nm). It counts as biochemical. The following applies: purified 15-PGDH enzyme, 21 μM PGE2, 0.25 mM NAD+, pH 7.5; concentration inhibiting 50% of 15-PGDH activity. The protocol: <1-1> Expression and Purification of 15-PGDH
A 15-PGDH cDNA plasmid containing BamHI and EcoRI sites of the pGES-2T expression vector was used to transform Escherichia coli BL-21 lysS in accordance with the ordinarily used in the art. The transformed cells were grown in 500 mL LB medium containing 50 μg/mL ampicillin at 37° C. while being stirred at 220 rpm until the OD600 reached 0.6. Isopropyl β-D-thiogalactoside (1 mM) was added and the cells were allowed to grow for 12 hours at 25° C. Then, the pellets were harvested by centrifugation at 4000×g for 30 minutes at 4° C. The cell pallets were resuspended in 20 mL cell lysis buffer (1×PBS buffer (pH 7.4) containing 1 mM EDTA and 0.1 mM DTT) and sonicated (14×10 s at 4° C.). The disrupted cells were centrifuged at 4000×g for 20 minutes at 4° C. The supernatant was loaded slowly on a glutathione-sepharose 4B column, which was equilibrated at 4° C. with a cell lysis buffer (1×PBS buffer (pH 7.4) containing 1 mM EDTA and 0.1 mM DTT). The column was washed with the lysis buffer until OD280 reached below 0.005. Then, 15-PGDH was eluted from the glutathione-sepharose 4B column at room temperature for 5 minutes by using the elution buffer (50 mM Tris-HCl (pH 8.0) containing 10 mM reduced glutathione, 1 mM EDTA and 0.1 mM DTT). The concentration and the purity of the purified enzyme were determined by SDS-PAGE.
<1-2> Assay for the Activities of 15-PGDH Inhibitors
The absorbance of the reaction mixture was recorded at 340 nm so that the activities of the derivatives according to the present invention as 15-PGDH inhibitors were determined from a standard curve prepared from the absorbance of various concentrations of NADH at 340 nm.
Take `O=C1NC(=O)/C(=C/c2ccc(OCCN3CCS(=O)(=O)CC3)c([N+](=O)[O-])c2)S1` [Derivative 90, 5-[3-nitro-4-(2-thiomorpholine1,1-Dioxideethoxy)benzylidene]-2,4-thiazolidinedione]: it took 2.45 µM to reach half-maximal inhibition (IC50).

On to `CC1CCC(COc2cccc(/C=C3\SC(=O)NC3=O)c2Cl)CC1` (centres unmarked) [Derivative 91, 5-{2-chloro-3-[(4-methylcyclohexyl)methoxy]benzylidene}-1,3-thiazolidine-2,4-dione], for which the half-inhibitory concentration (IC50) (as a rule, the concentration that gives 50% inhibition) was 0.135 µM.

With `O=C1NC(=O)/C(=C/c2cccc(OCCc3ccccn3)c2Cl)S1` [Derivative 93], the half-maximal inhibitory concentration (IC50) was 10.3 µM.

As for `CC(C)OCCOc1ccc(/C=C2\SC(=O)NC2=O)cc1Cl` [Derivative 94, 5-{3-chloro-4-[2-(propan-2-yloxy)ethoxy]benzylidene}-1,3-thiazolidine-2,4-dione], half-maximal inhibition (IC50) was put at 2.74 µM.

On to `O=C1NC(=O)/C(=C/c2ccc(OC3CCCCC3)cc2Cl)S1` [Derivative 95, 5-(2-chloro-4-(cyclohexyloxy)benzylidene)thiazolidine-2,4-dione], for which the midpoint of inhibition, the IC50, lay at 0.233 µM.

`O=C1NC(=O)/C(=C/c2ccc(OCC3CCCCC3)cc2Cl)S1` [Derivative 96, 5-(2-chloro-4-(3-cyclohexylmethoxy)benzylidene)thiazolidine-2,4-dione] came in with an IC50 of 2.45 µM.

`O=C1NC(=O)/C(=C/c2ccc(OCCCC3CCCCC3)cc2Cl)S1` [Derivative 97, 5-(2-chloro-4-(3-cyclohexylpropoxy)benzylidene)thiazolidine-2,4-dione] registered an IC50 of 0.284 µM.

The molecule `O=C1NC(=O)/C(=C/c2cccc(OC3CCCCC3)c2Cl)S1` [Derivative 99, 5-(2-chloro-3-(cyclohexyloxy)benzylidene)thiazolidine-2,4-dione] had an IC50 of 0.212 µM.

Regarding `O=C1NC(=O)/C(=C/c2cccc(OCCCCC3CCCCC3)c2Cl)S1` [Derivative 100, 5-(2-chloro-3-(cyclohexylbutoxy)benzylidene)thiazolidine-2,4-dione], the IC50 turned out to be 0.0945 µM.

`O=C1NC(=O)/C(=C/c2ccc(OCCc3cccs3)c(Cl)c2)S1` [Derivative 101, 5-(3-chloro-4-(2-(thiophen-2-yl)ethoxy)benzylidene)thiazolidine-2,4-dione] registered an IC50 of 0.0841 µM.

On to `COc1cc(/C=C2\SC(=O)NC2=O)ccc1OCCc1cccs1` [Derivative 102, 5-(3-methoxy-4-(2-(thiophen-2-yl)ethoxy)benzylidene)thiazolidine-2,4-dione], for which the IC50 came to 0.682 µM.

On to `COc1ccc(/C=C2\SC(=O)NC2=O)cc1OCCc1cccs1` [Derivative 103, 5-(4-methoxy-3-(2-(thiophen-2-yl)ethoxy)benzylidene)thiazolidine-2,4-dione], for which 1.67 µM corresponded to half-maximal inhibition (IC50).

As for `O=C1NC(=O)/C(=C/c2ccc(OCCc3ccccn3)cc2Cl)S1` [Derivative 104], the half-inhibitory concentration (IC50) stood at 8.91 µM.

On to `O=C1NC(=O)/C(=C/c2cccc(OCCC3CCCC3)c2Cl)S1` [Derivative 107, 5-[2-chloro-3-(2-cyclopentylethoxy)benzylidene]-1,3-thiazolidine-2,4-dione], for which half-maximal inhibition (IC50) was put at 0.154 µM.

Molecule `O=C1NC(=O)/C(=C/c2ccc(OCCC3CCCC3)c(Cl)c2)S1` [Derivative 108, 5-[3-chloro-4-(2-cyclopentylethoxy)benzylidene]-1,3-thiazolidine-2,4-dione] returned an IC50 of 0.0993 µM.

The molecule `O=C1NC(=O)/C(=C/c2cccc(OCc3ccc([N+](=O)[O-])cc3)c2Cl)S1` [Derivative 109, 5-(2-chloro-3-(4-nitrobenzyloxy)benzylidene)thiazolidine-2,4-dione] yielded an IC50 of 11.7 µM.

Take `O=C1NC(=O)/C(=C/c2cccc(OCCOC3CCCCC3)c2Cl)S1` [Derivative 110, 5-{2-chloro-3-[2-(cyclohexyloxy)ethoxy]benzylidene}-1,3-thiazolidine-2,4-dione]: the IC50 was determined as 0.233 µM.
